US7968532B2 (Besins Healthcare Luxembourg, priority 2003, dated 2011)
Read-outs that look alike come from different tables or passages of the source.

Legend:
[1] = in vivo
Method: (§1) The patients received [^3H]-labeled drug applied directly on the affected breasts at specified intervals ranging from 12 hours to 7 days before surgery to excise diseased tissue. Breast tissue from three regions: the tumor, tissue immediately surrounding the tumor, and normal tissue, was excised and immediately frozen in liquid nitrogen. Additionally, plasma and urine samples were obtained at scheduled intervals and frozen until analysis.

rat liver = settings: cited from earlier work
[2] = topical application
Method: (§2) Each participant applied the gel daily for the duration of two menstrual cycles.
(§3) On the first day of the following menstruation, treatment, which consisted of daily application of the gel over two menstrual cycles, began. Blood samples were collected 24 hours following the morning application of gel on days 7, 20 and 25 of the first and second cycles. On the last day of administration, day 25 of the second menstrual cycle, serial blood samples were collected prior to application and at 0.5, 1, 1.5, 2, 3, 4, 6, 12, 18, 24, 36, 48, and 72 hours after application of the gel.

[3] = human, in vivo; cited from earlier work
[4] = Pharmacokinetics of 4-hydroxy tamoxifen gel in healthy premenopausal women; assay type: in vivo, human
Method: as §2
At the end of a menstrual cycle, each patient received a single dose, after which serial blood samples were collected at 0, 0.5, 1, 1.5, 2, 3, 4, 6, 12, 18, 24, 36, 48, and 72 hours.
as §3

[5] = Follow-up study: percutaneous Z-[^3H]-4-hydroxy tamoxifen or Z-[^3H]-tamoxifen on the breast before surgery; tissue, plasma, urine radioactivity; settings: for Share of radioactivity in blood: 24 hours after percutaneous 4-hydroxy tamoxifen
Method: as §1

[6] = one person in Group 2 (0.5 mg/day gel, seventh day); one person in Group 1 (oral tamoxifen, fifth day); cited from earlier work

With `CC/C(=C(\c1ccc(O)cc1)c1ccc(OCCN(C)C)cc1)c1ccccc1` [Z-4-hydroxy tamoxifen] the “Percentage of radioactivity in breast tissue as Z and E isomer” value [1] was 32%.
In the case of `CCC(=C(c1ccc(O)cc1)c1ccc(OCCN(C)C)cc1)c1ccccc1` [4-hydroxy tamoxifen, 1-[4-(2-N-dimethylaminoethoxy)phenyl]-1-(4-hydroxyphenyl)-2-phenylbut-1-ene], the Rat liver carcinogen (rat liver; in vivo) is given as “not”, the “Metabolism in cytosolic and nuclear fractions of breast tissue” value [1] is given as “remained unmetabolized except for limited isomerization from the Z to the E form” and the “Share of radioactivity in blood” value [1] is given as 68%. The “Subcellular distribution in breast tissue” value [1] was “concentrated predominantly in the cytosolic and nuclear fractions of breast tissue”, the “Time of plateau of radioactivity in blood” value [1] was 4 to 6 days and the Systemic effects [2] was “no detectable laboratory or clinical evidence of systemic effects”. For the same compound, the “Radioactivity in excised tissue and normal breast tissue surrounding the tumor” value [3] was “contained radioactivity”, the “Plasma concentration of 4-hydroxy tamoxifen, Mean ± SD (Range)” value (from here on “Plasma concentration … Mean ± SD (Range)”) ([4]; 0.5 mg/day, gel 20 mg/100 g, n=12, First cycle Day 1, 0 hr) was “(0-17.2) pg/mL” and the “Plasma concentration … Mean ± SD (Range)” value ([4]; 0.5 mg/day, gel 20 mg/100 g, n=12, Second cycle, +8 days, LOQ <5 pg/mL) was “<LOQ”. For the same compound, the “Plasma concentration … Mean ± SD (Range)” value ([4]; 0.5 mg/day, gel 20 mg/100 g, n=12, Second cycle, +12 days (maximum)) was at most 9.09 pg/mL, the “Plasma concentration … Mean ± SD (Range)” value ([4]; 0.5 mg/day, gel 20 mg/100 g, n=12, Second cycle, +20 days) was 0 pg/mL and the “Plasma concentration … Mean ± SD (Range)” value ([4]; 1 mg/day, gel 20 mg/100 g, n=8, First cycle Day 1, 0 hr) was “(0-13.9) pg/mL”. The “Plasma concentration … Mean ± SD (Range)” value ([4]; 1 mg/day, gel 20 mg/100 g, n=8, Second cycle, +20 days, LOQ <5 pg/mL) was “<LOQ”, the “Plasma concentration … Mean ± SD (Range)” value ([4]; 1 mg/day, gel 57 mg/100 g, n=12, First cycle Day 1, 0 hr) was “(0-9.5) pg/mL” and the “Plasma concentration … Mean ± SD (Range)” value ([4]; 1 mg/day, gel 57 mg/100 g, n=12, Second cycle, +8 days) was “(0-14.8) pg/mL”. The “Plasma concentration … Mean ± SD (Range)” value ([4]; 2 mg/day, gel 57 mg/100 g, n=12, First cycle Day 1, 0 hr) was “(0-0) pg/mL” and the “Plasma concentration … Mean ± SD (Range)” value ([4]; 2 mg/day, gel 57 mg/100 g, n=12, Second cycle, +12 days) was “(0-30.4) pg/mL”.
With `CCC(=C(c1ccc(O)cc1)c1ccc(O)cc1)c1ccccc1` [Bisphenol] the “Share of radioactivity in blood” value [5] was 11%.
For `CCC(=C(c1ccc(O)cc1)c1ccc(OCCNC)cc1)c1ccccc1` [N-Desmethyl-4-Hydroxy Tamoxifen], the “Share of radioactivity in blood” value [5] was 18%.
For `CC/C(=C(/c1ccc(O)cc1)c1ccc(OCCN(C)C)cc1)c1ccccc1` (single isomer, unassigned) [E isomer], the “Percentage of radioactivity in breast tissue as Z and E isomer” value ([5]; day 7 after percutaneous administration) was 33%.
For `CC/C(=C(\c1ccccc1)c1ccc(OCCN(C)C)cc1)c1ccccc1` [tamoxifen, reference compound], the Rat liver carcinogen (rat liver) is listed as “is a potent rat liver carcinogen” and the Reported side effects [6] is listed as “hot flashes and mild vaginitis”.
